Ends that are not written are not given here.
What was measured:
[1] = Electronic tongue analysis (Taste-Sensing System SA 402B); parameters: unit not given here; conditions: reference solution 30 mM KCl + 0.3 mM tartaric acid as baseline, first measurement excluded; for Umami: sensor AAE; for Umami / Bitter / Sweet: detection threshold 0, room temperature; for Umami / Bitter / Sour / Salty: four replicates; for Sour: detection threshold -13, room temperature; for Salty: detection threshold -6, room temperature; for Sweet: measured five times
Experimental: Taste characteristics were analyzed using the electronic tongue system E-tongue (Taste-Sensing System SA 402B, Intelligent Sensor Technology Co. Ltd., Japan). The system was equipped with five specific sensor probes for detecting sourness (CA0), saltiness (CT0), bitterness (C00), sweetness (GL1), and umami (AAE). Samples were tested at concentrations of 0.1 mg/mL and 1.0 mg/mL. Prior to experiments, sensors were activated by immersion in a reference solution (30 mM KCl and 0.3 mM tartaric acid) for 24 h. A 30 min self-diagnostic procedure was performed before each measurement to ensure data accuracy. The reference solution served both as a cleaning solution and standard solution for taste signal calibration. According to the manufacturer’s instructions, using the reference solution as baseline, the detection thresholds were set at −13 for sourness, −6 for saltiness, and 0 for other taste modalities. Two cleaning solutions were employed for electrode maintenance: (1) 30% ethanol solution containing 100 mM HCl for negative charge reference electrodes, and (2) 30% ethanol solution containing 100 mM KCl and 10 mM KOH for positive charge reference electrodes. All taste measurements were performed at room temperature with four replicates, except for sweetness which was measured five times. The first measurement data were excluded from analysis.

[2] = system: human bronchial epithelial cells (BEAS-2B)
[3] = system: human embryonic kidney cells (HEK293T)
[4] = system: human pancreatic ductal epithelial cells (HPNE)
[5] = system: human umbilical vein endothelial cells (HUVEC)

Substance	Umami ([1]; peptide 0.1 mg/mL)	Umami ([1]; peptide 1 mg/mL)	Bitter ([1]; sensor C00, peptide 0.1 mg/mL)	Bitter ([1]; sensor C00, peptide 1 mg/mL)	Sour ([1]; sensor CA0, peptide 0.1 mg/mL)	Sour ([1]; sensor CA0, peptide 1 mg/mL)	Salty ([1]; sensor CT0, peptide 0.1 mg/mL)	Salty ([1]; sensor CT0, peptide 1 mg/mL)	Sweet ([1]; sensor GL1, peptide 0.1 mg/mL)	Sweet ([1]; sensor GL1, peptide 1 mg/mL)	Average cell viability, BEAS-2B [2]	Cell viability, BEAS-2B, Data1 [2]	Cell viability, BEAS-2B, Data2 [2]	Cell viability, BEAS-2B, Data3 [2]	Average cell viability, HEK293T [3]	Cell viability, HEK293T, Data1 [3]	Cell viability, HEK293T, Data2 [3]	Cell viability, HEK293T, Data3 [3]	Average cell viability, HPNE [4]	Cell viability, HPNE, Data1 [4]	other results
AWDGQ [TaPep73]	0.77	-5.41	7.64	4.33	-1.22	13.38	-19.69	8.78	4.76	-5.09	106.58	95.61	116.85	107.28	106.97	104.20	108.17	108.55	107.55	109.82	Cell viability, HPNE, Data2 [4]: 117.40; Cell viability, HPNE, Data3 [4]: 95.44; Average cell viability, HUVEC [5]: 105.51; Cell viability, HUVEC, Data1 [5]: 111.28; Cell viability, HUVEC, Data2 [5]: 115.27; Cell viability, HUVEC, Data3 [5]: 89.97
DAAEK [TaPep2]	1.21	-4.05	7.88	2.74	-2.30	12.60	-19.03	13.52	6.09	-5.50	107.18	116.05	111.86	93.62	92.18	95.02	84.13	97.38	105.52	116.01	Cell viability, HPNE, Data2 [4]: 111.51; Cell viability, HPNE, Data3 [4]: 89.05; Average cell viability, HUVEC [5]: 95.40; Cell viability, HUVEC, Data1 [5]: 97.15; Cell viability, HUVEC, Data2 [5]: 96.19; Cell viability, HUVEC, Data3 [5]: 92.84
DAELDK [TaPep34]	0.43	-4.87	7.62	3.25	-0.52	15.34	-17.51	13.63	5.08	-6.74	99.04	114.56	90.63	91.92	101.89	98.04	102.49	105.14	103.89	99.83	Cell viability, HPNE, Data2 [4]: 96.64; Cell viability, HPNE, Data3 [4]: 115.21; Average cell viability, HUVEC [5]: 96.25; Cell viability, HUVEC, Data1 [5]: 90.61; Cell viability, HUVEC, Data2 [5]: 95.80; Cell viability, HUVEC, Data3 [5]: 102.34

Source: PMC12543283, “TastepepAI: An artificial intelligence platform for taste peptide de novo design” (PLOS Computational Biology, 2025)
